The assay concerns HCT116 cells. The assay is described as follows: Cell viability assay (CellTiter-Glo, 72 hours) in HCT116 human colorectal cancer cells. It counts as cell-based. In short, it runs like this: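 2,000 cells/well adhered overnight, then compound added by digital dispenser with DMSO normalized to 0.5%. Viability read after 72 h at 37 °C by ATP-based CellTiter-Glo luminescence. IC50 from ten-point curves baseline-corrected to vehicle, five-parameter asymmetric least-squares fit.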
Background: In ATP-based viability assays light output follows the ATP content of the culture.

[1] abbreviates: Table 8, analogs of scaffold drawing 43 defined by R^2, R^3, X/Y, W, read-out: Activity (IC50 class, cell viability assay).
[2] abbreviates: Table 9, HCT116, 72 hours, read-out: Activity.
The mark [3] stands for this setting: Homo sapiens, HCT-116, Table 5, HCT116, 72 hours, read-out: Activity.
The mark [4] stands for this setting: Table 7, cell viability assay, CellTiter-Glo, 72 hours, scaffold drawing 42 with R^2, R^3, X/Y, Z, read-out: Activity.
[5] abbreviates: Table 5, HCT116, 72 hours, read-out: Activity.
[6] abbreviates: Table 3, HCT116, 72 hours, read-out: Activity.

21 molecules from patent US20260097047A1, “Small molecule inhibitors of the ribosome biogenesis factor NVL2” (Board of Regents, The University of Texas System, priority 2023, published 2026) can be followed below.

Read-outs that look alike come from different tables or passages of the source. Where only a bound is given, the exact number is not on record here.

In the case of `CO[C@H]1C[C@H](C(=O)Nc2cnc3c(c2)Sc2cc(Cl)ccc2C(=O)N3CC#CCl)C1` [—CH2CCCl; trans-3-MeOcBu; CCI/CH; N], under setting [1], the IC50 was less than 500 nM.
Turning to `COC12CC(C(=O)Nc3cnc4c(c3)Sc3ccccc3C(=O)N4CC#CCF)(C1)C2`, the IC50 (cell viability assay, Table 10 analogs of scaffold drawing 45 defined by R2, R3, X/Y, W, read-out: Activity) was less than 500 nM.
Regarding `C#CCN1C(=O)c2ccccc2Sc2cc(NC3CC(O)C3)ccc21` (stereo not drawn) [Table 6: —CH2CCH; 3-HOcBu; CH/CH; S], the IC50 (Table 6, HCT116, 72 hours, read-out: Activity) was less than 500 nM.
With `CC1c2ccccc2C(=O)N(CC#CC2CC2)c2ccc(NC(=O)C3CC4(CC(O)C4)C3)cc21` (stereo not drawn), the IC50 under setting [2] was less than 500 nM.
With `CC#CCN1C(=O)c2ccc(F)cc2Sc2cc(Nc3ncccc3C)ccc21` [10-(But-2-yn-1-yl)-3-fluoro-7-((3-methylpyridin-2-yl)amino)dibenzo[b,f][1,4]thiazepin-11 (10H)-one], under setting [3], the IC50 is less than 500 nM.
Turning to `COCCN1C(=O)c2ccccc2Sc2cc(NC(=O)c3ccc(N=[N+]=[N-])cc3)ccc21` [—(CH2)2OMe; 4-N3Ph; CH/CH; S], the IC50 under setting [4] lay within 1000 to 5000 nM.
`CC#CCN1C(=O)c2ccc(Cl)cc2Sc2cc(NC(=O)[C@@H]3C[C@H]3C(=O)OC)ccc21` (relative stereo) [—CH2CCMe; trans-2-MeO2C-cPr; CCl/CH; CH]: the IC50 under setting [1] was less than 500 nM.
Take `CC#CCN1C(=O)c2ccccc2Sc2cc(Nc3ccc(C)nn3)ccc21` [10-(But-2-yn-1-yl)-7-((6-methylpyridazin-3-yl)amino)dibenzo[b,f][1,4]thiazepin-11 (10H)-one]: the IC50 under setting [3] is less than 500 nM.
`CC#CCN1C(=O)c2ccccc2Sc2cc(NC3COCC3C#N)ccc21` (stereo not drawn) [4-((10-(But-2-yn-1-yl)-11-oxo-10,11-dihydrodibenzo[b,f][1,4]thiazepin-7-yl)amino)tetrahydrofuran-3-carbonitrile]: the IC50 (Homo sapiens, HCT-116, Table 6, HCT116, 72 hours, read-out: Activity) was 1000 to 5000 nM.
`C#CCN1C(=O)c2ccccc2Sc2cc(Nc3nc(C)ccc3F)cnc21`: the IC50 under setting [5] was less than 500 nM.
Regarding `CC#CCN1C(=O)c2ccc(F)cc2Sc2cc(Nc3nccnc3C)ccc21` [10-(But-2-yn-1-yl)-3-fluoro-7-((3-methylpyrazin-2-yl)amino)dibenzo[b,f][1,4]thiazepin-11 (10H)-one], under setting [3], the IC50 is less than 500 nM.
`CC#CCN1C(=O)c2ccccc2Sc2cc(NC(=O)NC3CC(COC)C3)ccc21` (stereo not drawn) [Table 3: —CH2CCMe; 3-MeOCH2-cBu; CH/CH]: the IC50 under setting [6] is less than 500 nM.
`CCC/C=C/CN1C(=O)c2ccccc2Sc2cc(Nc3ncccc3C#N)ccc21` [(E)-2-((10-(Hex-2-en-1-yl)-11-oxo-10,11-dihydrodibenzo[b,f][1,4]thiazepin-7-yl)amino) nicotinonitrile]: the IC50 under setting [3] was less than 500 nM.
As for `CC#CCN1C(=O)c2ccccc2Sc2cc(NC(=O)Nc3ccc(OC)cc3)ccc21` [Table 3: —CH2CCMe; 4-MeOPh; CH/CH], the IC50 under setting [6] is less than 500 nM.
With `C#CCN1C(=O)c2ccccc2Sc2cc(Nc3nc(C)cnc3C)ccc21`, the IC50 under setting [5] is less than 500 nM.
Turning to `CC#CCN1C(=O)c2ccccc2Sc2cc(NC(=O)C34CC(C(F)(F)F)(C3)C4)ccc21`, under setting [1], the IC50 was 500 to 1000 nM.
With `C#CCOCCN1C(=O)c2ccccc2Sc2cc(NC(=O)Nc3ccccc3)ccc21` [Table 3: —(CH2)2OCH2CCH; Ph; CH/CH, 1-(11-Oxo-10-(2-(prop-2-yn-1-yloxy)ethyl)-10,11-dihydrodibenzo[b,f][1,4]thiazepin-7-yl)-3-phenylurea], where the note is “Homo sapiens, HCT-116, Table 3, HCT116, 72 hours, read-out: Activity”, the IC50 was less than 500 nM.
Regarding `COCCN1C(=O)c2ccccc2Sc2cc(NC(C)=O)ccc21` [—(CH2)2OMe; Me; CH/CH; S], the IC50 under setting [4] fell in the range of 1000 to 5000 nM.
For `CO[C@H]1C[C@@H](C(=O)Nc2ccc3c(c2)C(C)(O)c2ccccc2C(=O)N3CC#CC2CC2)C1` (stereo partly drawn) [Table 9: —CH2CCcPr; cis-3-MeOcBu; CMeOH], the IC50 under setting [2] is less than 500 nM.
As for `CC#CCN1C(=O)c2ccccc2Sc2cc(Nc3nnccc3C)ccc21` [10-(But-2-yn-1-yl)-7-((4-methylpyridazin-3-yl)amino)dibenzo[b,f][1,4]thiazepin-11 (10H)-one], the IC50 under setting [3] is less than 500 nM.
On to `COCCN1C(=O)c2ccccc2Sc2cc(NC(=O)c3cocn3)ccc21` [—(CH2)2OMe; oxazol-4-yl; CH/CH; S], for which, under setting [4], the IC50 fell in the range of 1000 to 5000 nM.
